The record followed here is paper PMC12721191, “Oxidative hypoxia drives TGF-β1–induced fibrosis under normoxia” (Redox Biology, 2025).

pIC50: −log10 of the molar value. Entries after “also recorded” stand apart in the source; their conditions may differ.

For orientation: pIC50 means the negative decadic logarithm of the IC50, by convention in mol/L.

In one data set the test system is A549. Description: MTT cytotoxicity assay. Format: cell-based, human. Conditions: two cell lines including A549, up to 7 μM, with or without TGF-β1. As for the experimental part:
Cells (8 × 10^3 per well, 96-well) were treated as indicated, incubated with 0.5 mg/mL MTT for 4 h, solubilized in DMSO, and read at 570 nm.
Cells were seeded at 8 × 10³ cells per well in 200 µL of medium in a 96-well plate. The next day, the medium was replaced with medium containing the test compound(s) at the desired concentration(s) and incubated for the specified duration. After the incubation, the medium was discarded and replaced with 0.5 mg/mL Thiazolyl Blue Tetrazolium Bromide in PBS. Following a 4 h incubation at 37 °C, the formazan crystals were dissolved in DMSO, and absorbance was measured at 570 nm using a SUNRISE™ microplate reader. The relative cell viability was calculated based on the optical density values.
A general note: Tetrazolium assays rely on reduction of a dye to a coloured formazan, in cell work by metabolically active cells.

Data set [1] relates to BLM-induced pulmonary fibrosis. Description: BLM-induced pulmonary fibrosis, Ashcroft scoring of lung sections. The format is in vivo, ICR mice. Conditions: BLM 30 mg/kg intratracheal; ACF-2 10 mg/kg i.p. every 2 days or NIDB 60 mg/kg/day in drinking water, 2 weeks; BLM-only 6.2. Here is the method: Male ICR mice received BLM (30 mg/kg, intratracheal). […] Fixed left lung lobes were paraffin-embedded, sectioned (4 μm), and stained with H&E or MT. A blinded pathologist graded pulmonary fibrosis on the 1-8 Ashcroft scale; representative images illustrate typical lesions. Colon samples were processed by the swiss-roll method, stained with H&E, and scored for inflammation and erosion, which were combined into a composite histological score. All animal studies were approved by the Institutional Animal Care and Use Committee of Jeju National University (Approval ID: 2024-0058) and conducted in compliance with institutional guidelines. Male ICR mice (6 weeks old, average body weight 27 g) were purchased from […] (South Korea) and housed under controlled temperature (22 ± 2 °C) and humidity (0.0 ± 15.0 %) on a 12 hr light-dark cycle with free access to food and water. […] Lung tissue: Left lung lobes were fixed in 4% paraformaldehyde for 24 h, dehydrated, and embedded in paraffin. Sections of 4 μm thickness were prepared, deparaffinized with xylene, and rehydrated in a graded ethanol series. H&E staining was performed using hematoxylin and eosin solutions, respectively. The severity of fibrosis was graded according to the Ashcroft scale (1-8), as evaluated by a pathologist blindly. Representative H&E images were chosen to illustrate the most characteristic pathology. […]

Data set [2] is described as follows: Metabolic stability in pooled human liver microsomes. The format is in vitro ADME. Conditions: with NADPH, 0–60 min, read-out: half-life (t1/2) in HLMs. Here is the method:
To initiate the reaction, NADPH generating system was added to the incubation samples and further incubated for specific time points (0, 5, 15, 30, 45, and 60 min). Then, sample aliquots were taken and terminated with cold acetonitrile.
In general terms: Liver microsomes are a subcellular fraction often used to study metabolism.

The subject of data set [3] is BLM-induced pulmonary fibrosis. Description: RT-qPCR of lung tissue in BLM-treated mice. Format: in vivo, ICR mice. Conditions: BLM 30 mg/kg; ACF-2 10 mg/kg i.p. every 2 days or NIDB 60 mg/kg/day. Here is the method:
Total RNA (AccuPrep®) was reverse-transcribed and amplified with SYBR Green chemistry on a StepOnePlusTM system; relative expression was calculated by ΔΔCt. Male ICR mice received BLM (30 mg/kg, intratracheal). […] Total RNA was extracted from both cultured cells and mouse lung tissue using the AccuPrep® Universal RNA Extraction Kit. […] RT-qPCR was performed using iTaqTM Universal SYBR® Green Supermix on a StepOnePlusTM Real-Time PCR System. […] All animal studies were approved by the Institutional Animal Care and Use Committee of Jeju National University (Approval ID: 2024-0058) and conducted in compliance with institutional guidelines. Male ICR mice (6 weeks old, average body weight 27 g) were purchased from […] (South Korea) and housed under controlled temperature (22 ± 2 °C) and humidity (0.0 ± 15.0 %) on a 12 hr light-dark cycle with free access to food and water.
For orientation: In qPCR the cycle at which signal appears reflects the starting amount.

A further data set concerns HIF-1α–EGFP in A549. Description: pg-HIF-1α–EGFP fluorescence in transfected A549. The format is cell-based, human. The conditions noted are these: A549, co-treatment with TGF-β1. Here is the method: pg-HIF-1α–EGFP was introduced via jetOPTIMUS®; GFP fluorescence was quantified 48 h post-transfection.
Transient transfection of A549 cells with pg-HIF-1α–EGFP was performed using jetOPTIMUS® according to the manufacturer’s protocol. Following 48 hr of transfection, the medium was replaced, and cells were treated with TGF-β1 at the specified concentration and duration before further analysis. Cell imaging was performed using an EVOS™ M7000 at 10×, 20×, or 40× magnification. GFP fluorescence intensity was measured using ImageJ. The mean fluorescence within the regions of interest (ROIs) was calculated after background subtraction, and values were normalized to the control condition

The next data set addresses T1, CYP2C19 (Homo sapiens, UniProt P33261).
T1 construct: tissue Xenotech H0630; host or cells: pooled human liver microsomes
Description: Cytochrome P450 inhibition assay in HLMs. The conditions noted are these: pooled human liver microsomes, probe S-mephenytoin (4-hydroxylation), up to 50 μM. Format: in vitro ADME. Here is the method: (§1) All experiments were performed in triplicate. Phenacetin O-deethylase, coumarin hydroxylase, bupropion hydroxylase, amodiaquine N-deethylase, tolbutamide 4-hydroxylase, S-mephenytoin hydroxylase, dextromethorphan O-demethylase, chlorozoxazone 6-hydroxylase, and midazolam 1’-hydroxylase activities were determined as probe activities for CYP1A2, CYP2A6, CYP2B6, CYP2C8, CYP2C9, CYP2C19, CYP2D6, CYP2E1, and CYP3A, respectively, using cocktail incubation and tandem mass spectrometry, as described previously^2,3.

The target in a further data set is T2, CYP2C8 (Homo sapiens, UniProt P10632).
T2 construct: tissue Xenotech H0630; host or cells: pooled human liver microsomes
T2 sequence (P10632 1-490): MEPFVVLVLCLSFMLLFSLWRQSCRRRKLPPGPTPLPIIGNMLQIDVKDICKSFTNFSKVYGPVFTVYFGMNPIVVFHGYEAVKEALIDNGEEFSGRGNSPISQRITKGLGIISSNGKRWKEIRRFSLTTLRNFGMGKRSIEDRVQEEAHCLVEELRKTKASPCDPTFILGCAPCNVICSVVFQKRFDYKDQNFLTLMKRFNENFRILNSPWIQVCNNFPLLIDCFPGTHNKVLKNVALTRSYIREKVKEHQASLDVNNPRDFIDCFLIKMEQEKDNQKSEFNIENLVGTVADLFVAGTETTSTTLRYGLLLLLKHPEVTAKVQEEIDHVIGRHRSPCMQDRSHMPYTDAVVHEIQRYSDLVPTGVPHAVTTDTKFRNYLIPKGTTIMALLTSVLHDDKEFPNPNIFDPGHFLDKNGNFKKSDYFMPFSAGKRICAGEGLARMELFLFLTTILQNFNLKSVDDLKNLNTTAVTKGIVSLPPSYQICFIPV
Description: Cytochrome P450 inhibition assay in HLMs. The format is in vitro ADME. Conditions: pooled human liver microsomes, probe amodiaquine (N-deethylation), up to 50 μM. Here is the method: as §1

T1 sequence (P33261 whole entry): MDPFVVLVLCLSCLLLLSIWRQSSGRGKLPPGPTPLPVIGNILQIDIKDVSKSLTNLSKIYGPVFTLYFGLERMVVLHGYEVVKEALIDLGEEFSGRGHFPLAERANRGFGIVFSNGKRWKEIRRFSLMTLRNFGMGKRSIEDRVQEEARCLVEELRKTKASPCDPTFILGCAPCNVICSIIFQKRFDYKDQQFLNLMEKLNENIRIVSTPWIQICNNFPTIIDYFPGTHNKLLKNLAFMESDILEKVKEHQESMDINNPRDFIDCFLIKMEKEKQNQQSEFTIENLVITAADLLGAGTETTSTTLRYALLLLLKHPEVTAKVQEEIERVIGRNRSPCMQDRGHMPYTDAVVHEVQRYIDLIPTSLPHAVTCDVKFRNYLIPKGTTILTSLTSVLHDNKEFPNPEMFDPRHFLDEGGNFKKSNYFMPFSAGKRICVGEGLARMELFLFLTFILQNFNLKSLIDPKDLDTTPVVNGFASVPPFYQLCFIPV

Consider `COc1ccc(-c2c(-c3ccc(O)c(OC)c3)oc3cc(OC)c(OC)cc3c2=O)cc1` [ACF-2], for which the “cytotoxicity (MTT)” value in the data set with A549 was “does not induce cellular cytotoxicity; also recorded: did not exhibit cytotoxic effects”. Further, in data set [1], the “Average Ashcroft score” value is recorded as 3.3. In addition, the half-life at 1 µM in data set [2] is over 60 min. In data set [3], the “TGF-β1 (Tgfb1) expression in lung (RT-qPCR)” value is “markedly reduced”. For the same compound, the “TGF-β1–induced HIF-1α–EGFP GFP fluorescence intensity” value with HIF-1α–EGFP in A549 is listed as “significantly attenuated the TGF-β1–induced increase in GFP fluorescence intensity”. Moreover, the pIC50 on CYP2C19 is 5.09; against CYP2C8, 5.20.
